{"source": "ChEMBL document CHEMBL5107981", "about": "“A comprehensive comparative study on LSD1 in different cancers and tumor specific LSD1 inhibitors” (Eur J Med Chem, 2022)", "key": {"[1]": {"target": "T1, Lysine-specific histone demethylase 1A (Homo sapiens, UniProt O60341)", "description": "Inhibition of LSD1 (unknown origin)"}, "[2]": {"experiment": "Antiproliferative activity against human AML cell", "assay_type": "functional, cell-based", "settings": "Acute myeloid leukemic cell"}, "[3]": {"experiment": "Antiproliferative activity against human SCLC cell", "assay_type": "functional, cell-based", "settings": "Small cell lung cancer cell line"}, "[4]": {"target": "T1, Lysine-specific histone demethylase 1A", "experiment": "Inhibition of recombinant LSD1 (unknown origin) incubated for 1 hr"}}, "data": [{"smiles": "C/C(=N\\NC(=O)c1cccc(S(=O)(=O)N2CCN(C)CC2)c1)c1cc(Cl)ccc1O", "values": [{"measurement": "IC50", "setting": "[1]", "value": 0.013, "unit": "µM"}]}, {"smiles": "O=C(O)c1ccc(CN2CCC(CN[C@@H]3C[C@H]3c3ccccc3)CC2)cc1", "note": "[GSK2879552]", "values": [{"measurement": "IC50", "setting": "[2]", "value": 0.024, "unit": "µM"}, {"measurement": "IC50", "setting": "[3]", "value": 0.024, "unit": "µM"}]}, {"smiles": "Oc1ccc(/C=C/c2cc(O)cc(O)c2)cc1", "note": "[RESVERATROL]", "values": [{"measurement": "IC50", "setting": "[4]", "value": 15, "unit": "µM"}]}]}
